Here are results for nine compounds from US11572359B2, “PARP/PI3K double-target inhibit containing pyridopyrimidine structure” (CHINA PHARMACEUTICAL UNIVERSITY, priority 2017, dated 2023).

Read-outs that look alike come from different tables or passages of the source. Where only a bound is given, the exact number is not on record here.

Data set [1] addresses PARP-1 (Homo sapiens, UniProt P09874). Briefly: PARP-1 inhibitory activity at the enzyme level (histone-coated plate, chemiluminescence). The settings on record: for inhibition at 0.01 µM: 10 nM compound, read-out: Inhibition rate on PARP-1 (10 nM). The class given is biochemical. Here is the method: Experimental method for PARP-1 inhibitory activity: taking out a 96-well plate pre-coated with histones, and adding a following enzyme reaction system and inhibitors of different concentrations into each well, including: 50 μL of a reaction buffer solution (Tris*HCl, pH 8.0), NAD^+, biotin-labeled activated DNA, PARP-1 enzyme, and an inhibitor; after reaction at a room temperature for 1 hour, adding 50 uL of avidin-labeled HRP into each well for reaction for 30 minutes; and then adding 100 μL of an HRP substrate, and detecting a chemiluminescence value on a SpectraMax M instrument. The percentage of enzyme activity is calculated by the following formula: Enzyme activity percentage (%)=(OD value administration hole-OD value background)/(OD value control hole−OD value background)×100%
(§1) Method for determining IC50 of PARP-1 and PI3Kα: diluting a drug concentration according to a three-fold concentration gradient, and detecting two duplicate wells at each concentration; taking the drug concentration as the abscissa and the percentage of enzyme activity corresponding to each concentration as the ordinate, and calculating to obtain inhibition IC50 values of all tested compounds by using Graphpad Prism5 for nonlinear regression.

For data set [2], the target named is PI3Kα (Homo sapiens, UniProt P42336). As to the kind of experiment: PI3Kα inhibitory activity at the enzyme level (ADP detection by luciferase method). The class given is biochemical. The settings on record: for inhibition at 0.1 µM: 100 nM compound, read-out: Inhibition rate on PI3Kα (100 nM). Here is the method:
Experimental method for PI3Kα inhibitory activity: simultaneously adding 40 mM Tris, pH 7.4, 10 mM MgCl2, 0.1 mg/ml BSA, 1 mM DTT, 10 μM ATP, PI3Kα kinase and a kinase substrate into different concentrations of compounds to be sieved to form a 50 μL reaction system, after reaction at 30° C. for 40 minutes, detecting an ADP content in the system through a luciferase method, and then after reaction for 5 minutes, detecting a chemiluminescence signal on an MD-SpectraMax M5 multi-function microplate reader, wherein the intensity of a value of the chemiluminescence signal is in direct proportion to […]. The detected value of the chemiluminescence signal is substituted into the following formula: Enzyme activity percentage (%)=(OD value administration hole-OD value background)/(OD value control hole−OD value background)×100%
as §1

Data set [3] concerns Human Breast Cancer MDA-MB-468 Cell Nude Mice Xenograft. As to the kind of experiment: Growth of human breast cancer MDA-MB-468 cell nude mice xenograft. As to conditions: abdominal cavity, once every 2 days; for Tumor weights: after 34 days, in g (unit assumed). The class given is in vivo. As to the method:
Preparing an MDA-MB-468 cell line in a logarithmic growth phase into a 2×10^7/mL cell suspension under sterile conditions, and inoculating 0.1 mL of the cell suspension under the skin of the right axilla of each nude mouse. Measuring the diameter of a nude mice xenograft with a vernier caliper, and randomly dividing the animals into groups after the tumors grew to about 100 mm^3. Dynamically observing an anti-tumor effect of the tested animals using a method of measuring the tumor diameter, wherein the frequency of measurements of the tumor diameter is once every 2 days, and the administration volume is 0.4 mL/20 g. After 34 days, killing the mice and surgically removing and weighing tumor pieces. The formula for calculating tumor volume (TV) is: TV=½×a×b^2, wherein a and b represent the length and the width respectively.

For data set [4], the system named is MDA-MB-468 (human breast cancer cells). As to the kind of experiment: Tumor cell proliferation inhibition (SRB, 72 hours), MDA-MB-468. The class given is cell-based. Here is the method: Inoculating HCT116 (human colon cancer cells), HCC1937 (human breast cancer cells), MDA-MB-231 (human breast cancer cells) and MDA-MB-468 (human breast cancer cells) in a logarithmic growth phase with a certain quantity in a 96-well plate (200 μL/well) for culture for 24 hours so as to adhere to walls and then adding drugs. Arranging 3 duplicate wells for each drug concentration, and setting corresponding zero-cut holes and blank controls. After 72 hours of drug action, adding 50% TCA (50 μL/well) into adherent cells, fixing at 4° C. for 1 hour, pouring a fixing solution, washing for 5 times with distilled water, and naturally drying. Adding 100 μL of 4 mg/mL SRB into each well, staining at a room temperature for 15 minutes, discarding, washing for 5 times with 1% glacial acetic acid, and naturally drying. Finally, adding 150 μL of a 10 mM Tris solution into each well, shaking to be uniform, and measuring OD values at a wavelength of 565 nm using a wavelength-adjustable microplate reader (VERSAmax™, Molecular Device).

PI3Kα, sequence (P42336 whole entry): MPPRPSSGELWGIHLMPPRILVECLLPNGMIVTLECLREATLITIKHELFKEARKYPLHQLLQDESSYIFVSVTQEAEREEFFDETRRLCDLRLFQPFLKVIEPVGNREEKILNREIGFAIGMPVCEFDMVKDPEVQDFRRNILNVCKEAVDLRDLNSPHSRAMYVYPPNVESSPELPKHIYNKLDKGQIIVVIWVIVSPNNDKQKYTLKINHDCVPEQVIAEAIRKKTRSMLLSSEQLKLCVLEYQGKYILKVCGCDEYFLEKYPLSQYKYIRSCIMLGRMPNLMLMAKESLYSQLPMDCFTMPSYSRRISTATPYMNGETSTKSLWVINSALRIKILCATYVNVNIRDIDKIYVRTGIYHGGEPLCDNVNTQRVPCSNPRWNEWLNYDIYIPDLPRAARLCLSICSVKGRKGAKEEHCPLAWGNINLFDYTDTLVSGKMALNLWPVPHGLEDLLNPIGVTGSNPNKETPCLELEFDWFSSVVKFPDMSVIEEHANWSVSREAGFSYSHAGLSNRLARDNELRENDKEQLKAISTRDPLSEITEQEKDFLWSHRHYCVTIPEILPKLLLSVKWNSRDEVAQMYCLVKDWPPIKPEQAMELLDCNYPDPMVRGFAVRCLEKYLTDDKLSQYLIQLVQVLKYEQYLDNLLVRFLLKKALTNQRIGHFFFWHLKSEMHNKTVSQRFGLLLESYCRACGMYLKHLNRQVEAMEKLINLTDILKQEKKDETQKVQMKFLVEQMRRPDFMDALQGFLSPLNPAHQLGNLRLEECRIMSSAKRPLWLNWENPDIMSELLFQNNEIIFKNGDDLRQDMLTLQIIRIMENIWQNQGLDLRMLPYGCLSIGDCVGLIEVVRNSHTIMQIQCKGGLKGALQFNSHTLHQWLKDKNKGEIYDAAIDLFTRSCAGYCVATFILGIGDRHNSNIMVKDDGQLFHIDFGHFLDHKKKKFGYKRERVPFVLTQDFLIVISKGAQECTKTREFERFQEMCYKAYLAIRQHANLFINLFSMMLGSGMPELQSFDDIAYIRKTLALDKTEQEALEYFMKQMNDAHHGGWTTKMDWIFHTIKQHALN
PI3Kα, sequence (P27986 whole entry partner): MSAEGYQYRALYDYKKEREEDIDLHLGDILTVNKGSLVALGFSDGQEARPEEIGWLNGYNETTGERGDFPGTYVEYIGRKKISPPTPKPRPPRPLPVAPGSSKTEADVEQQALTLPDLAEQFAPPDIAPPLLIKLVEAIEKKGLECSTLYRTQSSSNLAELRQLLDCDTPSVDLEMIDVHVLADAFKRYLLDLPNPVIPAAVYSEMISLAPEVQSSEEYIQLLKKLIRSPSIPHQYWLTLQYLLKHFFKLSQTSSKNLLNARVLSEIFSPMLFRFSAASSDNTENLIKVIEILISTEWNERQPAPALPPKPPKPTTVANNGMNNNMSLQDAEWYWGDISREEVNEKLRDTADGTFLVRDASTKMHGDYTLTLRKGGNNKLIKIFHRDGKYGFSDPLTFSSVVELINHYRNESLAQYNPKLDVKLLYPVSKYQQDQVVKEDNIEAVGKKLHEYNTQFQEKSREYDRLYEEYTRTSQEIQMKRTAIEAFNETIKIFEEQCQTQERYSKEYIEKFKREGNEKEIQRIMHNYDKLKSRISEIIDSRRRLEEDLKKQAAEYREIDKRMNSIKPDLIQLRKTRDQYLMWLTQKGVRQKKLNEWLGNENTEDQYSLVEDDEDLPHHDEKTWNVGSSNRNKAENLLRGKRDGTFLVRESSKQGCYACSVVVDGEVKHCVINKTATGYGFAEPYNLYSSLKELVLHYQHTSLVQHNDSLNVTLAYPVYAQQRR
PARP-1, sequence (P09874 whole entry): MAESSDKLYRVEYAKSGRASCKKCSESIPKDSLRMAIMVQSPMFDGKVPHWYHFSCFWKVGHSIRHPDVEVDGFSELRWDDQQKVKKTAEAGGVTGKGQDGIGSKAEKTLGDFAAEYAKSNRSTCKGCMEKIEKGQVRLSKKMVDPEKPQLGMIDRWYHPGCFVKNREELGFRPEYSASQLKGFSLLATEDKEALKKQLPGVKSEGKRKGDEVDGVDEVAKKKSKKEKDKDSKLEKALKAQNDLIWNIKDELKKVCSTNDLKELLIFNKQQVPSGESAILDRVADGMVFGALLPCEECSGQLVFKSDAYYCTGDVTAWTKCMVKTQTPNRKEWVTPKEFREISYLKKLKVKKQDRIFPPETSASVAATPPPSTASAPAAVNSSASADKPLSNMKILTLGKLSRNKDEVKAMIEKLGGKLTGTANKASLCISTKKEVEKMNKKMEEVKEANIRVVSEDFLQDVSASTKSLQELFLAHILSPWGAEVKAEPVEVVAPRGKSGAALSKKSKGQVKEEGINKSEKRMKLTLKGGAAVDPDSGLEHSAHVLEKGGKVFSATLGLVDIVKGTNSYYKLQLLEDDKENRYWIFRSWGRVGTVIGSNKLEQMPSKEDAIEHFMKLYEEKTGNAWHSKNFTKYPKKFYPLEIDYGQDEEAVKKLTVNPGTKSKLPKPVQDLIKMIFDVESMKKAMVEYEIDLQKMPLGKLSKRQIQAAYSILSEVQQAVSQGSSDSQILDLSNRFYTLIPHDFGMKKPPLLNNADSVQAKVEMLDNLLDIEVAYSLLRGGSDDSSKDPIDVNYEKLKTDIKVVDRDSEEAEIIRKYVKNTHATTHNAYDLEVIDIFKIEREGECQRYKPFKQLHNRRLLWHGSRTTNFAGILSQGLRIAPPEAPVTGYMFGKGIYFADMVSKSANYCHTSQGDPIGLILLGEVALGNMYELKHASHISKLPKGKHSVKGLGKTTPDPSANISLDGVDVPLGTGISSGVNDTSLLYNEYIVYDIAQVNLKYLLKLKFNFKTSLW

For the compound `Nc1cc(-c2nc3c(c(N4CCOCC4)n2)CCN(C(=O)c2cc(Cc4n[nH]c(=O)c5ccccc45)ccc2F)C3)ccc1F` [I-7, 4-(3-(2-(3-amino-4-fluorophenyl)-4-morpholinyl-5,6,7,8-tetrahydropyrido[3,4-d]pyrimidin-7-formyl)-4-fluorobenzyl)phthalazin-1(2H)-one], the melting point fell in the range of 236 to 239 °C. Besides, the inhibition at 0.01 µM in data set [1] worked out at 83%. Moreover, in data set [2], the inhibition at 0.1 µM is 27%.
Turning to `Nc1cc(C(F)(F)F)c(-c2cc(N3CCOCC3)nc(N3CCOCC3)n2)cn1` [BKM120, reference compound], the “Tumor Volumes” value was found to be 94.67 mm^3 in data set [3] (0 day, 27.5 mg/kg); 203.83 mm^3 in data set [3] (6 days, 27.5 mg/kg); 294.34 mm^3 in data set [3] (12 days, 27.5 mg/kg); 388.09 mm^3 in data set [3] (18 days, 27.5 mg/kg); 525.13 mm^3 in data set [3] (24 days, 27.5 mg/kg); 677.51 mm^3 in data set [3] (30 days, 27.5 mg/kg). Besides, in data set [3] (34 days, 27.5 mg/kg), the “Tumor Volumes” value turned out to be 777.59 mm^3. Also, the Tumor weights in data set [3] (27.5 mg/kg) is 1.36.
Regarding `C[C@H]1COCCN1c1nc(-c2cnc(N)nc2)nc2c1CCN(C(=O)c1cc(Cc3n[nH]c(=O)c4ccccc34)ccc1F)C2` [I-11, (S)-4-(3-(2-(2-aminopyrimidin-5-yl)-4-(3-methylmorpholinyl)-5,6,7,8-tetrahydropyrido [3,4-d]pyrimidin-7-formyl)-4-fluorobenzyl)phthalazin-1(2H)-one], the melting point was 214 to 216 °C. Further, in data set [1], inhibition was half-maximal at 0.376 nM (IC50) and the inhibition at 0.01 µM was 94%. Further, in data set [2], the half-inhibitory concentration (IC50) amounted to 29.8 nM and the inhibition at 0.1 µM came out at 67%. The compound further gave an IC50 in data set [4] of 738 nM. Further, in data set [4] (Homo sapiens, MDA-MB-468, 72 h), the IC50 is < 1000 nM.
`O=C(c1cc(Cc2n[nH]c(=O)c3ccccc23)ccc1F)N1CCc2c(nc(-c3ccc4[nH]ccc4c3)nc2N2CCOCC2)C1` [I-9, 4-(3-(2-(1H-indole-5-yl)-4-morpholinyl-5,6,7,8-tetrahydropyrido[3,4-d]pyrimidin-7-formyl)-4-fluorobenzyl)phthalazin-1(2H)-one] came in with a melting point of 238 to 240 °C. In addition, in data set [1], the inhibition at 0.01 µM was 85%. The inhibition at 0.1 µM in data set [2] came to 30%.
For `Nc1ccc(-c2nc3c(c(N4CCOCC4)n2)CCN(C(=O)c2cc(Cc4n[nH]c(=O)c5ccccc45)ccc2F)C3)c(F)c1` [I-6, 4-(3-(2-(4-amino-2-fluorophenyl)-4-morpholinyl-5,6,7,8-tetrahydropyrido[3,4-d]pyrimidin-7-formyl)-4-fluorobenzyl)phthalazin-1(2H)-one], the melting point was 204 to 206 °C. The inhibition at 0.01 µM in data set [1] was determined as 89%. Also, in data set [2], the inhibition at 0.1 µM came to 24%.
`Nc1ncc(-c2nc3c(c(N4CCOCC4)n2)CCN(C(=O)c2cc(Cc4n[nH]c(=O)c5ccccc45)ccc2F)C3)cc1C(F)(F)F` [I-5, 4-(3-(2-(6-amino-5-(trifluoromethyl)pyridin-3-yl)-4-morpholinyl-5,6,7,8-tetrahydropyrido [3,4-d]pyrimidin-7-formyl)-4-fluorobenzyl)phthalazin-1(2H)-one] showed a melting point of 256 to 258 °C. In addition, the inhibition at 0.01 µM in data set [1] stood at 81%. In addition, the inhibition at 0.1 µM in data set [2] worked out at 17%.
In the case of `O=C(c1cc(Cc2n[nH]c(=O)c3ccccc23)ccc1F)N1CCN(C(=O)C2CC2)CC1` [Olaparib, reference compound], the “Tumor Volumes” value in data set [3] (0 day, 50 mg/kg (I-1: medium)) came to 96.41 mm^3; in data set [3] (6 days, 50 mg/kg (I-1: medium)), 222.00 mm^3; in data set [3] (12 days, 50 mg/kg (I-1: medium)) it was 324.20 mm^3; in data set [3] (18 days, 50 mg/kg (I-1: medium)), 422.84 mm^3; in data set [3] (24 days, 50 mg/kg (I-1: medium)), 566.86 mm^3; in data set [3] (30 days, 50 mg/kg (I-1: medium)) it was 718.76 mm^3. Further, the “Tumor Volumes” value in data set [3] (34 days, 50 mg/kg (I-1: medium)) came to 834.87 mm^3. In data set [3] (50 mg/kg (I-1: medium)), this compound had a Tumor weights of 1.55.
For the compound `O=C(CN1CCOCC1)Nc1cc(C(F)(F)F)c(-c2nc3c(c(N4CCOCC4)n2)CCN(C(=O)c2cc(Cc4n[nH]c(=O)c5ccccc45)ccc2F)C3)cn1` [I-4, N-(5-(7-(2-fluoro-5-((4-oxo-3,4-dihydrophthalazin-1-yl)methyl)benzoyl)-4-morpholinyl-5,6,7,8-tetrahydropyrido[3,4-cl]pyrimidin-2-yl)-4-(trifluoromethyl)pyridin-2-yl)-2-morpholinyl acetamide], in data set [1], the inhibition at 0.01 µM was determined as 67%. Also, in data set [2], the inhibition at 0.1 µM is 53%.
The matching figures for `O=C(c1cc(Cc2n[nH]c(=O)c3ccccc23)ccc1F)N1CCc2c(nc(-c3cccc4[nH]ccc34)nc2N2CCOCC2)C1` [I-10, 4-(3-(2-(1H-indole-4-yl)-4-morpholinyl-5,6,7,8-tetrahydropyrido[3,4-d]pyrimidin-7-formyl)-4-fluorobenzyl)phthalazin-1(2H)-one]: 88% and 15%.
